# Earlier results, collected in US20110245352A1, “Composition For Permeabilizing The Walls Of Microorganisms Comprising The Combination Of Ethylenediaminetetraacetic Acid (EDTA) And Polyethyleneimine (PEI)” (Millipore Corporation, priority 2007, published 2011).
# System: gram-positive bacteria
# Conditions: EDTA taken alone; in particular gram-positive bacteria
compound,measurement,value
"O=C(O)CN(CCN(CC(=O)O)CC(=O)O)CC(=O)O [EDTA, Ethylenediaminetetraacetic acid]",Permeabilization of microorganism walls for labeling of nucleic acids,does not allow satisfactory permeabilization
